Patent US8445676B2, “Pyrrolotriazine kinase inhibitors” (Bristol-Myers Squibb Company, priority 2008, dated 2013)
Read-outs that look alike come from different tables or passages of the source.

Tests used:
JAK2 = JAK2 (Homo sapiens, UniProt O60674); assay: JAK2 Tyrosine Kinase Assay; type: biochemical
Method in brief: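 Reaction of JAK2 with fluorescent substrate run 60 min at room temperature and stopped with EDTA. Substrate and phosphorylated product separated electrophoretically on a Caliper LabChip. Compounds tested at eleven concentrations in duplicate, with IC50 from non-linear regression.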

JAK3 = biological target: T1, JAK3 (Homo sapiens, UniProt P52333); assay: JAK3 Tyrosine Kinase Assay; type: biochemical; details: ATP 8 μM; JAK3 2.5 nM; 60 min room temperature
T1 sequence (P52333 1-1124): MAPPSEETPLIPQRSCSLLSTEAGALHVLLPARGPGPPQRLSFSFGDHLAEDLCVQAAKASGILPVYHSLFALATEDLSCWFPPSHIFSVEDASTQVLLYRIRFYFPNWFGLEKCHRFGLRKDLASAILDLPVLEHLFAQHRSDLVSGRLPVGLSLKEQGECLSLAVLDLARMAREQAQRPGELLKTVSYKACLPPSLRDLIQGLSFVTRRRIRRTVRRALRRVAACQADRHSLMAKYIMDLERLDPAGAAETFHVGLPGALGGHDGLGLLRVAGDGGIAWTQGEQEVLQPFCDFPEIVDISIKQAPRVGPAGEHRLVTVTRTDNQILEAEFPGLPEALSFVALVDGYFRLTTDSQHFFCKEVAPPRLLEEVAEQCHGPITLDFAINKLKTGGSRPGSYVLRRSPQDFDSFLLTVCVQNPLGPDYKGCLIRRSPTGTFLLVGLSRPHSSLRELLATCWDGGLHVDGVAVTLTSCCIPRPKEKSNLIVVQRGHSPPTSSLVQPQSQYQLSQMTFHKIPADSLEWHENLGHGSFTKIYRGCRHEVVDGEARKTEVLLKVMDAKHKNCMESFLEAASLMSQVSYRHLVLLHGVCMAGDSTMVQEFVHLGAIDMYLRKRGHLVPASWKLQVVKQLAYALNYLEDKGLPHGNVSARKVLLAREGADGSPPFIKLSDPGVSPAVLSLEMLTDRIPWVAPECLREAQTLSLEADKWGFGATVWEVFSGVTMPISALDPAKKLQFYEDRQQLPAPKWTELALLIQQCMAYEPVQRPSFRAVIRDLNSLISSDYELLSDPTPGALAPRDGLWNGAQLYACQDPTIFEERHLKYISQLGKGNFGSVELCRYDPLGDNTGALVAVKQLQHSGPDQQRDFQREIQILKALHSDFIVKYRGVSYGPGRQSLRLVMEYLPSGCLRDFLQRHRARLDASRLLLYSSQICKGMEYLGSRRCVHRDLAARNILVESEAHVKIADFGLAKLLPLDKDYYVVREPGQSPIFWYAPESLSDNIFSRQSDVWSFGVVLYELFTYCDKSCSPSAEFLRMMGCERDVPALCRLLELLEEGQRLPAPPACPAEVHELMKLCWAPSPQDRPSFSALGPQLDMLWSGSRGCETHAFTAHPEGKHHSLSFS
Procedure: JAK3 Tyrosine Kinase Assay
The assays were performed in V-bottom 384-well plates. […] The reaction was initiated by the combination of JAK3 with substrates and test compounds. The reaction was incubated at room temperature for 60 min. and terminated by adding 45 μl of 35 mM EDTA to each sample. The reaction mixture was analyzed on the Caliper LabChip 3000 by electrophoretic separation of the fluorescent substrate and phosphorylated product. […] The final concentration of reagents in the assays is ATP, 8 μM; JAK3 fluorescent peptide, 1.5 μM; JAK3, 2.5 nM; and DMSO, 1.6%. […] Compounds were dissolved at 10 mM in dimethylsulfoxide (DMSO) and evaluated at eleven concentrations, each in duplicate. IC50 values were derived by non-linear regression analysis.

[1] = ATP 30 μM, JAK2 1 nM, 60 min room temperature, read-out: Jak2(IC50)
[2] = list of named compounds, read-out: IC50 in the JAK2 assay

Chain of JAK2 (O60674 whole entry): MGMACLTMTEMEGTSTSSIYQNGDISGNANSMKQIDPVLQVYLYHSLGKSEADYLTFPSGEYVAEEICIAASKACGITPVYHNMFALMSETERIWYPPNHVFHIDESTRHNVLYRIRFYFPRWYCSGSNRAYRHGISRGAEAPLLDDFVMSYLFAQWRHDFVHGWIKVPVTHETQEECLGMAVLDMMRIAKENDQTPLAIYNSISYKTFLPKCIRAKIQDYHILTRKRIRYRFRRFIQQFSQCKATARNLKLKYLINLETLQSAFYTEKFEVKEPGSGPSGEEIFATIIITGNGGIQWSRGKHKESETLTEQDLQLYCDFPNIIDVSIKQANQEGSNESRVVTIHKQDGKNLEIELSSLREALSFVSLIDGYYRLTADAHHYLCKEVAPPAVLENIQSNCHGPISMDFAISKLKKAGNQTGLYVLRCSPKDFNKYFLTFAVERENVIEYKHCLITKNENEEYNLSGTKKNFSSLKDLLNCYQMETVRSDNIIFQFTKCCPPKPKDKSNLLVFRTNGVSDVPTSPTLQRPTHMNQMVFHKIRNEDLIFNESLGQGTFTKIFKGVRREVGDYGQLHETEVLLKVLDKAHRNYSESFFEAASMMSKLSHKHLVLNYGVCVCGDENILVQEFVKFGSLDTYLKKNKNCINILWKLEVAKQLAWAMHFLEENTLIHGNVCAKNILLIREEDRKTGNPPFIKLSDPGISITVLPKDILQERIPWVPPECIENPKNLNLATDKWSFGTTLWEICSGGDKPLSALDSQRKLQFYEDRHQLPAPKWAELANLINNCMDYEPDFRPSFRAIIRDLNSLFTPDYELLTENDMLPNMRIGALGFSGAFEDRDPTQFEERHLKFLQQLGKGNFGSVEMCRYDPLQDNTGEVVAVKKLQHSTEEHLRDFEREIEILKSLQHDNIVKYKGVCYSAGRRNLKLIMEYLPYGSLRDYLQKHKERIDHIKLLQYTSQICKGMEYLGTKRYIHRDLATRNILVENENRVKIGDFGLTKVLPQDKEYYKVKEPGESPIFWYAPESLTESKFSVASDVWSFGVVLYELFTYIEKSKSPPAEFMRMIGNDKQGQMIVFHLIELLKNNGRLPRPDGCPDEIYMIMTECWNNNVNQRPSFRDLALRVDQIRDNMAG

Row | SMILES | IC50 (JAK2; [1]) [nM] | IC50 (JAK3) [nM] | IC50 (JAK2; [2]) [nM]
1 | Cc1cc(Nc2nc(N3CCN(C(=O)Cc4ccc(F)cc4F)CC3)nn3cccc23)n[nH]1 [Example 37, 2-(4-((2,4-difluorophenyl)acetyl)-1-piperazinyl)-N-(5-methyl-1H-pyrazol-3-yl)pyrrolo[2,1-f][1,2,4]triazin-4-amine] | 7.73 | 160 | 
2 | CO[C@@H](C(=O)N1CCN(c2nc(Nc3cc(C)[nH]n3)c3cccn3n2)CC1)c1ccccc1 [Example 110, 2-(4-((2R)-2-methoxy-2-phenylacetyl)-1-piperazinyl)-N-(5-methyl-1H-pyrazol-3-yl)pyrrolo[2,1-f][1,2,4]triazin-4-amine] | 1 | 20 | 
3 | CCC(CO)(CO)C(=O)N1CCN(c2nc(Nc3cc(C)[nH]n3)c3cccn3n2)CC1 [Example 152, 2-ethyl-2-((4-(4-((5-methyl-1H-pyrazol-3-yl)amino)pyrrolo[2,1-f] [1,2,4]triazin-2-yl)-1-piperazinyl)carbonyl)-1,3-propanediol] | 300 | 2360 | 
4 | COc1cc(F)c(CC(=O)N2CCN(c3nc(Nc4cc(C)[nH]n4)c4cccn4n3)CC2)c(F)c1 [Example 139, 2-(4-((2,6-difluoro-4-methoxyphenyl)acetyl)-1-piperazinyl)-N-(5-methyl-1H-pyrazol-3-yl)pyrrolo[2,1-f][1,2,4]triazin-4-amine] |  | 70 | 
5 | Cc1cc(Nc2nc(N3CCN(C(=O)[C@@H](NC(=O)OC(C)(C)C)c4ccc(F)cc4)CC3)nn3cccc23)n[nH]1 [tert-butyl((1S)-1-(4-fluorophenyl)-2-(4-(4-((5-methyl-1H-pyrazol-3-yl)amino)pyrrolo[2,1-f][1,2,4]triazin-2-yl)-1-piperazinyl)-2-oxoethyl)carbamate] |  |  | ≤ 5
6 | Cc1cc(Nc2nc(N3CCN(C(=O)Cc4ccccc4C(F)(F)F)CC3)nn3cccc23)n[nH]1 [N-(5-methyl-1H-pyrazol-3-yl)-2-(4-((2-(trifluoromethyl)phenyl)acetyl)-1-piperazinyl)pyrrolo[2,1-f][1,2,4]triazin-4-amine] |  |  | ≤ 5
7 | Cc1cc(Nc2nc(N3CCN(C(=O)Cc4c(F)cccc4F)CC3)nn3cccc23)n[nH]1 [2-(4-((2,6-difluorophenyl)acetyl)-1-piperazinyl)-N-(5-methyl-1H-pyrazol-3-yl)pyrrolo[2,1-f][1,2,4]triazin-4-amine] |  |  | ≤ 5
8 | Cc1cc(Nc2nc(N3CCN(C(=O)[C@H](O)CCc4ccccc4)CC3)nn3cccc23)n[nH]1 [(2R)-1-(4-(4-((5-methyl-1H-pyrazol-3-yl)amino)pyrrolo[2,1-f][1,2,4]triazin-2-yl)-1-piperazinyl)-1-oxo-4-phenyl-2-butanol] |  |  | ≤ 5
9 | Cc1cc(Nc2nc(N3CCN(C(=O)c4ccoc4)CC3)nn3cccc23)n[nH]1 [2-(4-(3-furoyl)-1-piperazinyl)-N-(5-methyl-1H-pyrazol-3-yl)pyrrolo[2,1-f][1,2,4]triazin-4-amine] |  |  | ≤ 5
10 | Cc1cc(Nc2nc(N3CCN(C(=O)c4cccc(Cl)c4)CC3)nn3cccc23)n[nH]1 [2-(4-(3-chlorobenzoyl)-1-piperazinyl)-N-(5-methyl-1H-pyrazol-3-yl)pyrrolo[2,1-f][1,2,4]triazin-4-amine] |  |  | ≤ 5
11 | Cc1cc(Nc2nc(N3CCN(C(=O)C(O)c4ccc(Cl)cc4)CC3)nn3cccc23)n[nH]1 (stereo not shown) [1-(4-chlorophenyl)-2-(4-(4-((5-methyl-1H-pyrazol-3-yl)amino)pyrrolo[2,1-f][1,2,4]triazin-2-yl)-1-piperazinyl)-2-oxoethanol] |  |  | ≤ 5
12 | Cc1cc(Nc2nc(N3CCN(C(=O)c4ncco4)CC3)nn3cccc23)n[nH]1 [N-(5-methyl-1H-pyrazol-3-yl)-2-(4-(1,3-oxazol-2-ylcarbonyl)-1-piperazinyl)pyrrolo[2,1-f][1,2,4]triazin-4-amine] |  |  | ≤ 5
13 | CCOc1cc(F)c(CC(=O)N2CCN(c3nc(Nc4cc(C)[nH]n4)c4cccn4n3)CC2)c(F)c1 [2-(4-((4-ethoxy-2,6-difluorophenyl)acetyl)-1-piperazinyl)-N-(5-methyl-1H-pyrazol-3-yl)pyrrolo[2,1-f][1,2,4]triazin-4-amine] |  |  | ≤ 5

More lines, now with the values ahead:

Row | IC50 (JAK2; [1]) [nM] | IC50 (JAK3) [nM] | IC50 (JAK2; [2]) [nM] | SMILES
14 |  |  | ≤ 5 | Cc1cc(Nc2nc(N3CCN(C(=O)C4(NC(=O)OC(C)(C)C)CCc5ccccc54)CC3)nn3cccc23)n[nH]1 (stereo not shown) [tert-butyl (1-((4-(4-((5-methyl-1H-pyrazol-3-yl)amino)pyrrolo[2,1-f][1,2,4]triazin-2-yl)-1-piperazinyl)carbonyl)-2,3-dihydro-1H-inden-1-yl)carbamate]
15 |  |  | ≤ 5 | CCC(C)(C)C(=O)N1CCN(c2nc(Nc3cc(C)[nH]n3)c3cccn3n2)CC1 [2-(4-(2,2-dimethylbutanoyl)-1-piperazinyl)-N-(5-methyl-1H-pyrazol-3-yl)pyrrolo[2,1-f][1,2,4]triazin-4-amine]
16 |  |  | ≤ 5 | Cc1cc(Nc2nc(N3CCN(C(=O)c4sc5ccccc5c4Cl)CC3)nn3cccc23)n[nH]1 [2-(4-((3-chloro-1-benzothiophene-2-yl)carbonyl)-1-piperazinyl)-N-(5-methyl-1H-pyrazol-3-yl)pyrrolo[2,1-f][1,2,4]triazin-4-amine]
17 |  |  | ≤ 5 | Cc1cc(Nc2nc(N3CCN(C(=O)C4(C#N)CC4)CC3)nn3cccc23)n[nH]1 [1-((4-(4-((5-methyl-1H-pyrazol-3-yl)amino)pyrrolo[2,1-f][1,2,4]triazin-2-yl)-1-piperazinyl)carbonyl)cyclopropanecarbonitrile]
18 |  |  | ≤ 5 | Cc1cc(Nc2nc(N3CCN(C(=O)C(c4ccc(Cl)cc4)C(C)C)CC3)nn3cccc23)n[nH]1 (stereo not shown) [2-(4-(2-(4-chlorophenyl)-3-methylbutanoyl)-1-piperazinyl)-N-(5-methyl-1H-pyrazol-3-yl)pyrrolo[2,1-f][1,2,4]triazin-4-amine]
19 |  |  | ≤ 5 | Cc1cc(Nc2nc(N3CCN(C(=O)Cc4ccc(OC(F)(F)F)cc4)CC3)nn3cccc23)n[nH]1 [N-(5-methyl-1H-pyrazol-3-yl)-2-(4-((4-(trifluoromethoxy)phenyl)acetyl)-1-piperazinyl)pyrrolo[2,1-f][1,2,4]triazin-4-amine]
20 |  |  | ≤ 5 | Cc1cc(Nc2nc(N3CCN(C(=O)Cc4cccc(F)c4)CC3)nn3cccc23)n[nH]1 [2-(4-((3-fluorophenyl)acetyl)-1-piperazinyl)-N-(5-methyl-1H-pyrazol-3-yl)pyrrolo[2,1-f][1,2,4]triazin-4-amine]
21 |  |  | ≤ 5 | CC(=O)NC(C(=O)N1CCN(c2nc(Nc3cc(C)[nH]n3)c3cccn3n2)CC1)c1ccccc1 (stereo not shown) [N-(2-(4-(4-((5-methyl-1H-pyrazol-3-yl)amino)pyrrolo[2,1-f][1,2,4]triazin-2-yl)-1-piperazinyl)-2-oxo-1-phenylethyl)acetamide]
22 |  |  | ≤ 5 | Cc1cc(Nc2nc(N3CCN(C(=O)C(C)c4ccc(Cl)cc4)CC3)nn3cccc23)n[nH]1 (stereo not shown) [2-(4-(2-(4-chlorophenyl)propanoyl)-1-piperazinyl)-N-(5-methyl-1H-pyrazol-3-yl)pyrrolo[2,1-f][1,2,4]triazin-4-amine]
23 |  |  | ≤ 5 | CC(=O)Nc1cccc(C(=O)N2CCN(c3nc(Nc4cc(C)[nH]n4)c4cccn4n3)CC2)c1 [N-(3-((4-(4-((5-methyl-1H-pyrazol-3-yl)amino)pyrrolo[2,1-f][1,2,4]triazin-2-yl)-1-piperazinyl)carbonyl)phenyl)acetamide]
24 |  |  | ≤ 5 | Cc1cc(Nc2nc(N3CCN(C(=O)Cc4c(Cl)cccc4Cl)CC3)nn3cccc23)n[nH]1 [2-(4-((2,6-dichlorophenyl)acetyl)-1-piperazinyl)-N-(5-methyl-1H-pyrazol-3-yl)pyrrolo[2,1-f][1,2,4]triazin-4-amine]
25 |  |  | ≤ 5 | CC[C@H](C(=O)N1CCN(c2nc(Nc3cc(C)[nH]n3)c3cccn3n2)CC1)c1ccccc1 [N-(5-methyl-1H-pyrazol-3-yl)-2-(4-((2S)-2-phenylbutanoyl)-1-piperazinyl)pyrrolo[2,1-f][1,2,4]triazin-4-amine]
